Assay results from patent US5736565A, “Therapeutic compounds suitable for the treatment of diseases connected with glutathione deficiency, process for their preparation, and pharmaceutical compositions containing same” (Prospa B.V., priority 1992, dated 1998).
Read-outs that look alike come from different tables or passages of the source. Peptide text beside a SMILES is read from it.

Columns and labels:
[1] = tested on: glutathione (GSH) in hepatocytes; experiment: Tests in vitro: glutathione content of isolated rat hepatocytes; assay type: cell-based; details: for activity at 250 µM / activity at 500 µM / activity at 1000 µM / activity at 2500 µM / activity at 5000 µM: read-out: Glutathione concentrations; for activity at 1000 µM: DEM + 1.0 mM; for activity at 5000 µM: DEM + 5.0 mM
Description: The experimental model envisages the isolation of hepatic parenchymal cells of rats following perfusion, with collagenase, of the isolated organ. Prior to each test, hepatocytes vitality was quantified by Tripan Blue […]. Only the cells with a vitality greater than 90% were utilized. Hepatocytes were resuspended, at a concentration of 10^6 cells/ml, in a saline medium (Krebs Heinseleit) at ph 7.4, and then placed into rotating flasks in the presence of O2 (95%) and CO2 (5%), at 37° C. Cells keep vital for 5-6 hours at least.
[…] The cells were then washed for 30 min. and incubated with various concentrations of the test substance (from 0.25 to 5 mM).
By this experimental model it is possible to test the effect of the substance by evaluating the hepatic functionality determined by measurements of the vitality (Tables Nos. 3, 4, and 5) and of glutathione content (Tables 6, 7, and 8).
In the Tables 3-8 herein below reported, the controls are represented by normal hepatocytes, not treated either with DEM or with compound (I).

peripheral lymphocytes = experiment: Blastization with phytohaemagglutinin (PHA) of peripheral lymphocytes of PSC-treated rats; assay type: in vivo, Sprague-Dawley rats; details: 600 mg/kg i.p. 15 days + PHA
Description: Sprague-Dawley rats (Charles River, Calco (CO)), aged 10 weeks (young adults) and 24 months (old), were stabled under standard conditions (24°±1° C., 12 h light/dark cycle, free access to food and water). Handlings were made in such a way as to avoid stressful stimuli.
The animals were stabled in groups of 6 per cage and treated for 2 weeks (15 days) with a PSC daily dose of 600 mg/kg by intraperitoneal route (i.p.).
Once the treatment with PSC previously described in the paragraph "Animals" was completed, the animals, both young and old, were sacrificed by decapitation and the blood collected in heparin-treated tubes. The blood samples were stratified on Ficoll-Paque gradient and centrifuged at 2500 rpm for 15 min. The lymphocytic cellular fraction was taken by suction and washed three times with a Lphysiological solution (0.9% NaCl). At the end of the treatment, the cells were resuspended in culture medium RPMI 1640 containing 10% FBS, counted (1×10^5 cells/0.1 ml/well) and incubated for 48 hrs at 37° C., in a 5% carbon dioxide environment. At the incubation end, mitogens concavaline A (ConA) and phytohaemagglutinin (PHA) were added to the cultures at a concentration of 1 μg/ml in a volume of 0.1 ml. Eighteen hours later, tritiated thymidine (0.01 ml) was added to the cultures, subsequently incubated for 3 hrs. […] Radioactivity (dpm) was measured 2 min. using a β-counter. […]

DCP toxicity in the rat = experiment: Test No. 4: dichloropropane (DCP) intoxication in vivo, death rate and signs; details: DCP-treated rats
Description: A test was carried out in vivo on four groups of four rats each, using, as a toxic substance, dichloropropane (DCP), the main constituent of several solvents. DCP is noxious both by ingestion and inhalation and has a notable toxicity to the liver, mediated by an almost total depletion of thiol groups, including those of GSH.
The experimental model involves the study of the effect of DCP toxicity in the rat, in respect of glutathione (GSH) concentration in the main target tissue: the liver.
Tests were carried out on four groups of rats. The first group of animals was administered 2 ml DCP/kg dissolved in oil (40% v/v) per os. Twenty-four hours after DCP administration, blood samples were taken for SGPT measurement, while the animals were sacrificed; small portions of liver were then excised and immediately deproteinized by homogenization in 6% PCA. The chromatographic analyses of GSH and GSSG (oxidized glutathione) were performed.
The second group of animals was treated with the test drug (600 mg/kg i.p.) two hours after DCP administration. The third and fourth groups were treated with N-acetyl-cysteine (NAC) (250 mg/kg i.p.) and, respectively, with glutathione (Tationil^R) (600 mg/kg i.p.).

[2] = Rattus norvegicus, Hepatocyte, 0 h, 0 time
[3] = Rattus norvegicus, Hepatocyte, 0.5 h, 30 min
[4] = Rattus norvegicus, Hepatocyte, 1 h, 1 hr
[5] = Rattus norvegicus, Hepatocyte, 2 h, 2 hrs
[6] = Rattus norvegicus, Hepatocyte, 4 h, 4 hrs

In the case of `CC(=O)SC[C@H](NC(=O)[C@@H]1CCC(=O)N1)C(=O)O` [PSC, 2-(S)-(2-pyrrolidone-5-(S)-carbonyl amido)-3-acetylmercapto propionic acid] (HELM PEPTIDE1{[Glp].C}|PEPTIDE2{[ac]}$PEPTIDE1,PEPTIDE2,2:R3-1:R2$$$V2.0), the “increase in the GSH content” value ([1]; DEM-pretreated hepatocytes, 2.5 and 5 mM) is reported as “greater than 170%”, the activity at 250 µM ([1]; Rattus norvegicus, Hepatocyte, 0 h, DEM + 0.25 mM, 0 time) is reported as 28% and the activity at 500 µM ([1]; Rattus norvegicus, Hepatocyte, 0 h, DEM + 0.50 mM, 0 time) is reported as 28.4%. The activity at 1000 µM [1, 2] was 25.8%, the activity at 2500 µM ([1]; Rattus norvegicus, Hepatocyte, 0 h, DEM + 2.5 mM, 0 time) was 23.9% and the activity at 5000 µM [1, 2] was 26.6%. It also gave an activity at 250 µM ([1]; Rattus norvegicus, Hepatocyte, 0 h, no DEM, 0.25 mM, 0 time) of 104%, an activity at 500 µM ([1]; Rattus norvegicus, Hepatocyte, 0 h, no DEM, 0.50 mM, 0 time) of 107% and an activity at 2500 µM ([1]; Rattus norvegicus, Hepatocyte, 0 h, no DEM, 2.5 mM, 0 time) of 99.5%. For the same compound, the activity at 250 µM ([1]; Rattus norvegicus, Hepatocyte, 0.5 h, DEM + 0.25 mM, 30 min) was 42.8%, the activity at 500 µM ([1]; Rattus norvegicus, Hepatocyte, 0.5 h, DEM + 0.50 mM, 30 min) was 45.7% and the activity at 1000 µM [1, 3] was 52.7%. It also gave an activity at 2500 µM ([1]; Rattus norvegicus, Hepatocyte, 0.5 h, DEM + 2.5 mM, 30 min) of 61.1%, an activity at 5000 µM [1, 3] of 69.4% and an activity at 250 µM ([1]; Rattus norvegicus, Hepatocyte, 0.5 h, no DEM, 0.25 mM, 30 min) of 117%. For the same compound, the activity at 500 µM ([1]; Rattus norvegicus, Hepatocyte, 0.5 h, no DEM, 0.50 mM, 30 min) was 144%, the activity at 2500 µM ([1]; Rattus norvegicus, Hepatocyte, 0.5 h, no DEM, 2.5 mM, 30 min) was 158% and the activity at 250 µM ([1]; Rattus norvegicus, Hepatocyte, 1 h, DEM + 0.25 mM, 1 hr) was 54.8%. It also gave an activity at 500 µM ([1]; Rattus norvegicus, Hepatocyte, 1 h, DEM + 0.50 mM, 1 hr) of 74.2%, an activity at 1000 µM [1, 4] of 71% and an activity at 2500 µM ([1]; Rattus norvegicus, Hepatocyte, 1 h, DEM + 2.5 mM, 1 hr) of 89%. For the same compound, the activity at 5000 µM [1, 4] was 92%, the activity at 250 µM ([1]; Rattus norvegicus, Hepatocyte, 1 h, no DEM, 0.25 mM, 1 hr) was 134% and the activity at 500 µM ([1]; Rattus norvegicus, Hepatocyte, 1 h, no DEM, 0.50 mM, 1 hr) was 155%. It also gave an activity at 2500 µM ([1]; Rattus norvegicus, Hepatocyte, 1 h, no DEM, 2.5 mM, 1 hr) of 182%, an activity at 250 µM ([1]; Rattus norvegicus, Hepatocyte, 2 h, DEM + 0.25 mM, 2 hrs) of 81.2% and an activity at 500 µM ([1]; Rattus norvegicus, Hepatocyte, 2 h, DEM + 0.50 mM, 2 hrs) of 103%. The activity at 1000 µM [1, 5] was 96.7%, the activity at 2500 µM ([1]; Rattus norvegicus, Hepatocyte, 2 h, DEM + 2.5 mM, 2 hrs) was 119% and the activity at 5000 µM [1, 5] was 119%. The activity at 250 µM ([1]; Rattus norvegicus, Hepatocyte, 2 h, no DEM, 0.25 mM, 2 hrs) was 142%, the activity at 500 µM ([1]; Rattus norvegicus, Hepatocyte, 2 h, no DEM, 0.50 mM, 2 hrs) was 159% and the activity at 2500 µM ([1]; Rattus norvegicus, Hepatocyte, 2 h, no DEM, 2.5 mM, 2 hrs) was 191%. It also gave an activity at 250 µM ([1]; Rattus norvegicus, Hepatocyte, 4 h, DEM + 0.25 mM, 4 hrs) of 83%, an activity at 500 µM ([1]; Rattus norvegicus, Hepatocyte, 4 h, DEM + 0.50 mM, 4 hrs) of 138% and an activity at 1000 µM [1, 6] of 119%. For the same compound, the activity at 2500 µM ([1]; Rattus norvegicus, Hepatocyte, 4 h, DEM + 2.5 mM, 4 hrs) was 173%, the activity at 5000 µM [1, 6] was 191% and the activity at 250 µM ([1]; Rattus norvegicus, Hepatocyte, 4 h, no DEM, 0.25 mM, 4 hrs) was 146%. The activity at 500 µM ([1]; Rattus norvegicus, Hepatocyte, 4 h, no DEM, 0.50 mM, 4 hrs) was 207%, the activity at 2500 µM ([1]; Rattus norvegicus, Hepatocyte, 4 h, no DEM, 2.5 mM, 4 hrs) was 211% and the activation at 250 µM ([1]; Rattus norvegicus, Hepatocyte, DEM-pretreated hepatocytes, 0.25 mM, 4 hours, read-out: increase in GSH values) was ~80%. The activation at 500 µM ([1]; Rattus norvegicus, Hepatocyte, DEM-pretreated hepatocytes, 0.5 mM, 4 hours, read-out: increase in GSH values) was 130 to 140%, the activation at 1000 µM ([1]; Rattus norvegicus, Hepatocyte, DEM-pretreated hepatocytes, 1 mM, read-out: increase in the GSH content) was ~120% and the “restoring thiol groups and in particular GSH (in words)” value ([1]; in vitro) was “greatly effective in restoring thiol groups and in particular GSH”. The “permeability of the hepatocyte membrane (in words)” value ([1]; normal hepatocytes) was “clearly indicates the permeability of the hepatocyte membrane”, the “increase in basal GSH at 2.5 mM compared with 0.5 mM (in words)” value ([1]; normal hepatocytes, 4 hours) was “superimposable to that caused by concentrations five times lower (0.5 mM)” and the “increase in GSH basal values” ([1]; normal hepatocytes, concentrations from 0.5 mM, after 4 hrs, in respect of controls) was “greater than 180%”. For the same compound, the “blastization (tritiated thymidine incorporation), Young” value (peripheral lymphocytes) was 703 ± 44 DPM × 100, the “blastization (tritiated thymidine incorporation), Elderly” value (peripheral lymphocytes; *P < 0.05) was 533 ± 29 DPM × 100 and the “behavioural (torpor) and postural (ataxia) disorders (in words)” value (DCP toxicity in the rat) was “did not show any notable modification of said parameters”. The “death (in words)” value (DCP toxicity in the rat) was “no death occurred”, the “macroscopic examination of liver (in words)” value (DCP toxicity in the rat) was “showed liver parenchyma within standard limits” and the “coagulative disorders (in words)” value (DCP toxicity in the rat; merely qualitative examination) was “absent”.
